Patent publication US5312919A, “Photooxidation products and derivatives thereof of merocyanine-540, their preparation and uses” (priority 1992, dated 1994)

What was measured:
[1] = test system: human Burkitt lymphoma Daudi cells; assay: Cytotoxic effects on human Burkitt lymphoma Daudi cells (MTT assay); type: cell-based
Experimental: Human Burkitt Lymphoma Daudi cells (1×10^6 cells/ml) were treated with different concentrations of Merodantoin. After overnight incubation at 37° C., the tumor cells kill was determined by MTT assay.
Human Burkitt Lymphoma Daudi cells (1×10^6 cells/ml) were treated with different concentrations of Merocil. After overnight incubation at 37° C., the tumor cells kill was determined by MTT assay.
Each cell type (1×10^6 cells/ml; in triplicate) was treated with indicated concentrations of Merocil or Merodantoin. After overnight (20 hr.) or 5 day incubation periods, the cell viability was determined by MTT assay and calculated as a percentage of untreated controls.

[2] = test system: L1210 mouse leukemia cells; assay: Combined effect on L1210 mouse leukemia cells (MTT assay); conditions: MC = 12.5 μg/ml; MD = 25 μg/ml; MZ = 25 μg/ml; overnight
Experimental: The biological activities of the photooxidation products of MC 540 were determined. Preactivated MC 540 is abbreviated as pMC 540. Assays of antitumor activities of the products were carried out according to published standard methods.
Mouse leukemia L1210 cells (1 × 10^6 cells/ml) were treated wit
different combinations of the indicated compounds (isolated from
preactivated merocyanine 540). After overnight incubation the cell kill

Compound: CC1(O)Oc2ccccc2N1CCCS(=O)(=O)O (centres unmarked) [Meroxazole, 2-Hydroxy-2-methyl-3-[3'-sulfopropyl]-benzoxazolin]
- cytotoxicity at 25 µg/mL ([1]; Homo sapiens, Daudi, 25 μg/ml, representative experiment, read-out: % Cell Kill): 0%
- cytotoxicity at 50 µg/mL ([1]; Homo sapiens, Daudi, 50 μg/ml, representative experiment, read-out: % Cell Kill): 0%
- cytotoxicity at 75 µg/mL ([1]; Homo sapiens, Daudi, 75 μg/ml, representative experiment, read-out: % Cell Kill): 0%
- cytotoxicity at 100 µg/mL ([1]; Homo sapiens, Daudi, 100 μg/ml, representative experiment, read-out: % Cell Kill): 0%
- cytotoxicity at 125 µg/mL ([1]; Homo sapiens, Daudi, 125 μg/ml, representative experiment, read-out: % Cell Kill): 0%
- cytotoxicity at 500 µg/mL ([1]; Homo sapiens, Daudi, 500 μg/ml, representative experiment, read-out: % Cell Kill): 32%
- cytotoxicity to Daudi cells (conclusion) ([1]; doses of Table 7): not cytotoxic
- % Cell Kill [2]: Zero
